Results taken from EP0248999A2, “Uses of enprostil-type prostaglandins in regulating fat and carbohydrate metabolism” (SYNTEX (U.S.A.) INC., priority 1986, dated 1987).
Read-outs that look alike come from different tables or passages of the source.

Tests used:
insulin levels = details: cited from earlier work
[1] = system: serum insulin and glucose levels; experiment: Example 6: eight-day cross-over study with standard breakfast, serum glucose, insulin and GIP; assay type: in vivo, human; details: 70 µg orally
Method: (§1) The following non-limiting examples will further clarify the nature of this invention. In these examples, serum lipids and cholesterol were measured by standard methods ("Manual of Laboratory Operations, Lipid Research Clinic Program, Lipid and Lipoprotein Analysis", DHEW Publication No. (NIH) 75-628 (1974)); serum insulin, GIP, and C-peptide were measured by radioimmunoassay; and apoproteins were measured by radial immunodiffusion.
Eight healthy male subjects received either […] enprostil per day or placebo for eight days followed by a washout period of one week and a subsequent second eight-day administration during which they received the opposite drug regime.
On day 1 and day 8 of each study period the subjects reported to the clinical studies unit fasting and were administered 70 µg of enprostil orally in a glass of water. Thirty minutes later they were administered a standard breakfast and blood samples were drawn at -30 (just prior to enprostil administration), O (at the time of enprostil administration), 15, 30, 60, 90, 120 and 180 minutes.

serum glucose levels = experiment: Example 8 (headed 'Example'): 30-day dosing study with standard breakfast, serum glucose; assay type: in vivo, human; details: enprostil 35 pg BID
Method: 20 subjects participated in a study lasting up to 44 days. On day -8, all 20 subjects received a placebo capsule, followed 30 minutes later by a standard breakfast with serial blood measurements. Eight days later all 20 subjects were randomized to either enprostil 35 pg BID or placebo, and continued dosing for a period of 30 days. On days 1, 8, and 30, they were given enprostil followed 30 minutes later by a standard breakfast with serial blood measurements.

atherosclerotic plaque = experiment: Example 10: cholesterol-fed rabbit, aortic atherosclerotic plaque; assay type: in vivo, New Zealand white rabbits; details: Group B: 2% cholesterol diet, enprostil 10 pg/Kg/day constant oral infusion, 56 days; vehicle Group A 25%
Method: Fortyfive New Zealand white rabbits were allocated to three groups, A, B, and C, each group consisting of 15 rabbits. Group A was fed a 2% cholesterol diet and received vehicle administered by constant oral infusion at 62 ul/day using an Alza minipump. Group B was also fed a 2% cholesterol diet but, via the minipump, received enprostil at an infusion rate of 10 pg/Kg/day. Group C was fed a normal diet and received no treatment.
At the end of 56 days of the above treatments, rabbits were sacrificed and their aortic tissue was subjected to pathologic examination. In Group C, the placebo control group, the percent of aortic area covered by atherosclerotic plaque was under 5%. In the rabbits from Group A, which had received the high cholesterol diet with vehicle infusion, 25% of the aortic area was covered with atherosclerotic plaque. These findings contrasted with those for the Group B rabbits, which in addition to the high cholesterol diet had received enprostil by continuous infusion . In these animals, only 10% of aortic tissue was covered with atheromatous plaque. This finding is statistically significant from the Group A rabbits.

serum cholesterol levels [2] = experiment: Example 2, Table 2: 9-day placebo-controlled cross-over study in normocholesterolemic subjects, serum lipids and apoproteins; assay type: in vivo, human; set-up: Mean reduction of cholesterol / Mean reduction of LDL-cholesterol / Mean reduction of HDL-cholesterol / Mean reduction of apoprotein-A / Mean reduction of apoprotein-B: concentration or dose not given beside the values; details: 9-day cross-over
Method: as §1
To further clarify the nature of these changes in a prospective manner, normal subjects were dosed with enprostil for periods ranging from 8 days up to 44 days in duration.
In a 9-day placebo-controlled cross-over study, with each subject serving as their own control, the mean reduction in cholesterol, LDL-cholesterol, and HDL-cholesterol are shown in Table 2.
These findings are surprising since the subjects in this study were normocholesterolemic at baseline (that is serum cholesterol under 250 mg/dl) and were on a free diet with no attempt to regulate dietary cholesterol intake.

serum cholesterol levels [3] = experiment: Example 2, Table 1: oral enprostil BID in hypercholesterolemic patients versus placebo; assay type: in vivo, human
Method: as §1

serum cholesterol = experiment: Example 1: oral enprostil, serum cholesterol in patients with high cholesterol baseline; assay type: in vivo, human; details: five weeks
Method: as §1
A group of 20 patients with high cholesterol baseline were orally given 70 µg enprostil twice daily. […] The median change for the group was 16 percent reduction, with 60 percent of the patients tested showing a significant reduction in serum cholesterol.
A second group of 16 patients with a high cholesterol baseline were given […] enprostil twice daily.
A third group of 13 individuals were given a placebo. […] The median change was a 2 percent increase in cholesterol.

serum GIP levels = experiment: Example 4: double-blind cross-over meal study, serum GIP; assay type: in vivo, human; details: 70p.g enprostil orally 30 minutes before meal; placebo four-fold increase
Method: as §1
Serum GIP levels are known to increase after meals.
Groups of 10 subjects participated in a double-blind, cross-over study. Either a placebo or 70p.g enprostil was orally given 30 minutes before meal time and levels of GIP were measured.

serum xylose = experiment: Example 7: oral d-xylose absorption test in 10-day cross-over study; assay type: in vivo, human; details: 5 g d-xylose orally
Method: (§2) 10 normal subjects participated in a 10-day placebo-controlled cross-over study, receiving either placebo or 70 µg enprostil per day. On day 1 and day 9 of each study phase they orally received 5 g of d-xylose, a sugar not normally metabolized in man. Blood measurements for serum xylose were made at -30, 0, +30, 60, 120, 180, 240, and 300 minutes following ingestion.of xylose. On day 2 and day 10 of each study phase, the subjects received a 25 g intravenous glucose tolerance test, 30 minutes following enprostil administration.

insulin and GIP = experiment: Example 9: fatty meal study, insulin and GIP; assay type: in vivo, human
Method: as §1
(§3) Six male subjects participated in a double-blind cross-over study. Either placebo or enprostil […] was orally given 30 minutes before a fatty meal consisting of approximately 600 Kcal, 90% of which was fat. Following the meal, serum triglycerides and total serum cholesterol were measured at serial time points before and after removal of serum chylomicrons by ultracentrifugation. Serum HDL-cholesterol was measured only before chylomicron removal.

serum triglycerides = experiment: Example 9: double-blind cross-over fatty meal study, serum and chylomicron triglycerides; assay type: in vivo, human
Method: as §1, §3

serum glucose = experiment: Example 7: 25 g intravenous glucose tolerance test; assay type: in vivo, human; details: 25 g intravenous glucose 30 minutes after enprostil, day 2 and day 10
Method: as §2

serum cholesterol levels [4] = experiment: Example 3: 44-day placebo-controlled dosing study, total and LDL-cholesterol; assay type: in vivo, human
Method: as §1
In a 44-day dosing study, 20 subjects participated in a placebo-controlled trial. Ten subjects received enprostil and the remainder received placebo. Data were obtained from 9 of the 10 subjects who received enprostil. […] This subject was normocholesterolemic at baseline and no dietary manipulation was attempted.

[5] = system: serum insulin and glucose levels; experiment: Example 5: double-blind cross-over meal study, serum insulin and glucose; assay type: in vivo, human; details: enprostil orally 30 minutes before meal
Method: as §1
A group of 10 subjects participated in a double-blind cross-over study. Either a placebo or enprostil was orally given 30 minutes before meal time and levels of insulin and glucose were measured after the meal.

[6] = Animal antisecretory assays; assay type: in vivo; details: compared with enprostil (isomer mixture)
[7] = enprostil 35 pg before fatty meal
[8] = of nine evaluable subjects receiving enprostil
[9] = one subject, baseline to day 44
[10] = administered by tube to the duodenum

## CCCCC[C@](C)(O)/C=C/[C@H]1[C@H](O)CC(=O)[C@@H]1C/C=C\CCCC(=O)OCC [(15S),15-methyl-PGE2 ethyl ester]
Insulin levels; intravenous administration
  glucose levels: without affecting
  insulin levels: lowered

## COC(=O)CCC=C=CCC1C(=O)CC(O)C1C=CC(O)COc1ccccc1 (racemic) [enprostil, methyl (±)-7-[(1R*,2R*,3R*)-3-hydroxy-2-[(E)-(3R*)-3-hydroxy-4-phenoxy-l-butenyl]-5-oxocyclopentyl]-4,5-heptadienoate]
[1]; both study days
  serum GIP: essentially complete inhibition
[1]; day 1 and 8
  serum insulin concentrations for each time point: marked reduction
[1]; day 1 and day 8
  reduction of area under the serum glucose by time curve compared to the placebo phase: 15-20%
Serum glucose levels; standard breakfast
  peak blood glucose levels versus placebo: substantially reduced
Serum glucose levels; standard breakfast 30 minutes after dose, placebo approximately 60 minutes
  time of appearance of peak blood glucose levels: ~90 min
Atherosclerotic plaque
  aortic tissue covered with atheromatous plaque: 10%
Serum cholesterol levels [2]
  change in total triglycerides: essentially no change
Serum cholesterol levels [2]; free diet
  Mean reduction of HDL-cholesterol: -9.2%
  Mean reduction of LDL-cholesterol: -21.0%
  Mean reduction of apoprotein-A: -1.8%
  Mean reduction of apoprotein-B: -16.0%
  Mean reduction of cholesterol: -15.0%
Serum cholesterol levels [3]; 7 µg BID, 9 hypercholesterolemic subjects
  Cholesterol % decrease (combined 2-12 week of dosing): 67%
Serum cholesterol levels [3]; 7 µg BID, 9 subjects
  Median % change (cholesterol): -11%
Serum cholesterol levels [3]; 35 µg BID, 28 hypercholesterolemic subjects
  Cholesterol % decrease (combined 2-12 week of dosing): 64%
Serum cholesterol levels [3]; 35 µg BID, 28 subjects
  Median % change (cholesterol): -13%
Serum cholesterol levels [3]; 70 µg BID, 28 hypercholesterolemic subjects
  Cholesterol % decrease (combined 2-12 week of dosing): 64%
Serum cholesterol levels [3]; 70 µg BID, 28 subjects
  Median % change (cholesterol): -17%
Serum cholesterol; 35 pg enprostil twice daily, 16 patients with high cholesterol baseline
  median change (reduction) of serum cholesterol: eleven
Serum cholesterol; 35 pg twice daily, 16 patients
  number of patients showing greater than 10 percent serum cholesterol reduction: eight
  number of patients showing greater than 25 percent reduction: one
  number of patients showing no change in serum cholesterol: seven
  patients showing serum cholesterol reduction: 56%
Serum cholesterol; 70 µg enprostil orally twice daily, 20 patients with high cholesterol baseline
  median change (reduction) of serum cholesterol: 16%
Serum cholesterol; 70 µg twice daily, 20 patients
  number of patients showing greater than 10 percent reduction: eleven
  number of patients showing greater than 25 percent reduction: one
  number of patients showing no change in serum cholesterol: eight
  patients tested showing a significant reduction in serum cholesterol: 60%
Serum GIP levels
  increase in serum GIP 60 minutes after the meal stimulus: no increase
Serum xylose; 70 µg enprostil per day, days 1 and 9
  peak serum xylose levels: marked suppression and delay
Serum xylose; 70 µg per day
  reduction in the amount of xylose excreted over 5 hours: 30%
Serum xylose; 70 µg per day, placebo 1.8g
  amount of xylose excreted over 5 hours: 1.3 g
Insulin and GIP; enprostil 35 pg, at 30, 60, and 90 minutes
  insulin levels following the fatty meal: significantly lower
Insulin and GIP; enprostil 35 µg, up to 360 minutes, p<0.05
  GIP levels following the fatty meal: virtually completely suppressed
Serum triglycerides; enprostil 35 pg 30 minutes before fatty meal, at 360 minutes, placebo 160 mg/dl at 120 minutes
  maximal postprandial total serum triglycerides before chylomicron removal: 105 mg/dL
Serum triglycerides; [7]
  appearance of postprandial serum: remained clear
  chylomicron triglyceride content (in words): virtually complete suppression
  chylomicron-associated triglyceridemia through 120 minutes: complete absence
Serum triglycerides; enprostil 35 pg phase, mean, placebo 86 mg/dl
  fasting baseline total serum triglycerides before chylomicron removal: 83 mg/dL
Serum triglycerides; enprostil 35 pg phase, placebo 82 mg/dl
  fasting serum triglycerides after chylomicron removal: 80 mg/dL
Serum triglycerides; enprostil 35 pg, 360 minutes, placebo 115 mg/dl (180 minutes)
  maximal postprandial serum triglycerides after chylomicron removal: 89 mg/dL
Serum triglycerides; enprostil 35 pg, at 360 minutes after fatty meal, placebo 46 mg/dl (120 minutes)
  mean rise of chylomicron triglyceride content over fasting level: 16 mg/dL
Serum glucose
  serum glucose by time curves following intravenous glucose administration, enprostil versus placebo: no marked differences
Serum cholesterol levels [4]; [8]
  individuals with reduction in total and LDL-cholesterol throughout the entire 44-day period: Three
  subjects showing a reduction of total cholesterol by 16 days: Six
Serum cholesterol levels [4]; one subject (most dramatic example), mean baseline 208 mg/dl, normocholesterolemic, no dietary manipulation
  total serum cholesterol at day 44: 123 mg/dL
Serum cholesterol levels [4]; one subject, baseline 140 mg/dl
  LDL-cholesterol at day 44: 75 mg/dL
Serum cholesterol levels [4]; [9]
  reduction in LDL-cholesterol: 46%
  reduction of total serum cholesterol: 43%
[5]
  raise in glucose levels after the meal: no statistically or clinically significant raise
[5]; placebo five-fold
  increase of insulin levels after the meal: two-fold

## CCCCC[C@](C)(O)/C=C/[C@H]1[C@H](O)CC(=O)[C@@H]1C/C=C\CCCC(=O)OC [(15S),15-methyl-PGE2 methyl ester]
Insulin levels; [10]
  insulin levels: lowered
  serum glucose levels: no change
Insulin levels; intraduodenally or intravenously
  time to peak serum glucose levels: no change

## COC(=O)CCC=C=CC[C@H]1C(=O)C[C@@H](O)[C@@H]1/C=C/[C@@H](O)COc1ccccc1 (single isomer, unassigned) [R allenic isomer of enprostil]
[6]
  potency in animal antisecretory assays: increased potency
  toxicity in animal antisecretory assays: lower toxicity
